We go through three compounds from patent publication US20220110889A1, “R-KETAMINE AND DERIVATIVE THEREOF AS PROPHYLACTIC OR THERAPEUTIC AGENT FOR NEURODEV[…]” (National University Corporation Chiba University, priority 2018, published 2022).

“Also recorded” adds a separate entry of the source.

For data set [1], the system named is mice treated with PCP serving as animal models of schizophrenia. Briefly: Novel object recognition test (NORT) in mice repeatedly administered with PCP (animal model of schizophrenia). Format: in vivo. The following applies: for cognitive function in NORT (ratio of time to find the novel object relative to time to find the two objects): male ICR mice, PCP 10 mg/kg s.c. for ten days, test drug 10 mg/kg intraperitoneally on days 15, 18, 22, 25, vs PCP+physiological saline. As to the method: The creation of model animals of a cognitive impairment of schizophrenia and drug administration were specifically carried out as described below (FIG. 1). For the mice, male ICR mice (8 weeks old, Japan SLC Inc., Hamamatsu, Japan) were purchased. The mice were allowed to freely ingest water and feed. On the first day of testing, physiological saline (10 mL/kg bodyweight) or PCP (10 mg/kg bodyweight) was subcutaneously administered once a day for ten days (from the first day of testing to the fifth day of testing and from the eighth day of testing to the twelfth day of testing: no administration on the sixth and seventh days of testing). On the fifteenth day of testing, the eighteenth day of testing, the twenty-second day of testing, and the twenty-fifth day of testing, R-ketamine (10 mg/kg bodyweight) or a medium (10 mL/kg of physiological saline) was intraperitoneally administered. […] The novel object recognition test (NORT: novel object recognition test) is a system used to evaluate cognitive functions. The NORT was carried out according to a previous report (Hashimoto et al. Eur. J. Pharmacol. 2005; 519 (1-2): 114-117). From the twenty-sixth day to the twenty-eighth day of testing, acclimation to a NORT apparatus (50.8×50.8×25.4 cm) was performed for 10 minutes per day. On the twenty-ninth day of testing, two objects of different shapes and colors were placed 35.5 cm apart in the NORT apparatus, and an amount of time to find each object was measured. A training session (10 minutes) was carried out, and on the following day, the thirtieth day of testing, a test session (5 minutes) was carried out (FIG. 1). In the test session on the following day, one object was replaced with another, new object (novel object). An amount of time to find the two objects was measured, and in the test session on the second day, a ratio of an amount of time to find the novel object relative to the amount of time to find the two objects was calculated. On the day following the end of behavior testing, a brain region (frontal cortex, hippocampus) of the mice was extracted, and the brain tissue was stored in a freezer. Brain-derived neurotrophic factor (BDNF: brain-derived neurotrophic factor); TrkB, which is a BDNF receptor; and phosphorylated TrkB in the brain tissue were quantified by western blotting (FIG. 3).
The effect of S-ketamine was examined according to the method above. On the first day of testing, physiological saline (10 mL/kg bodyweight) or PCP (10 mg/kg bodyweight) was subcutaneously administered once a day for ten days (from the first day of testing to the fifth day of testing and from the eighth day of testing to the twelfth day of testing: no administration on the sixth and seventh days of testing). […]

In data set [2] the test system is BDNF-TrkB system. Briefly: Western blotting of BDNF, TrkB and phosphorylated TrkB in frontal cortex and hippocampus of PCP-treated mice. The format is in vivo. The following applies: R-ketamine 10 mg/kg i.p., brain extracted after behavior testing. For orientation: A western blot detects proteins with antibodies after separation by electrophoresis.
Procedure: The creation of model animals of a cognitive impairment of schizophrenia and drug administration were specifically carried out as described below (FIG. 1). For the mice, male ICR mice (8 weeks old, Japan SLC Inc., Hamamatsu, Japan) were purchased. The mice were allowed to freely ingest water and feed. On the first day of testing, physiological saline (10 mL/kg bodyweight) or PCP (10 mg/kg bodyweight) was subcutaneously administered once a day for ten days (from the first day of testing to the fifth day of testing and from the eighth day of testing to the twelfth day of testing: no administration on the sixth and seventh days of testing). On the fifteenth day of testing, the eighteenth day of testing, the twenty-second day of testing, and the twenty-fifth day of testing, R-ketamine (10 mg/kg bodyweight) or a medium (10 mL/kg of physiological saline) was intraperitoneally administered. […] On the day following the end of behavior testing, a brain region (frontal cortex, hippocampus) of the mice was extracted, and the brain tissue was stored in a freezer. Brain-derived neurotrophic factor (BDNF: brain-derived neurotrophic factor); TrkB, which is a BDNF receptor; and phosphorylated TrkB in the brain tissue were quantified by western blotting (FIG. 3). […]
For data set [3] the following is noted: animal testing, non-patent literature 12 to 14; cited from earlier work.
Data set [4] deals with baby mice (male) born from pregnant mice administered with Poly (I:C). Nature of the data set: Novel object recognition test in offspring of pregnant mice administered with Poly (I:C) (maternal immune activation model). Format: in vivo. To be noted: male offspring of Poly (I:C) 5 mg/kg dams; R-ketamine 10 mg/kg i.p. twice a week, four weeks (weeks 4 to 8 after birth); NORT at 10 weeks old or thereafter. As to the method: The creation of model animals of a neurodevelopmental disorder such as schizophrenia or autism spectrum disorder (models of maternal immune activation) and drug administration were specifically carried out as described below (FIG. 5). For the mice, pregnant ddY mice (8 to 10 weeks old, Japan SLC Inc., Hamamatsu, Japan) were purchased. The mice were allowed to freely ingest water and feed. Physiological saline (5 mL/kg bodyweight) or Poly (I:C) (Sigma-Aldrich: 5 mg/kg bodyweight) was intraperitoneally administered for six days, from the twelfth day of pregnancy to the seventeenth day of pregnancy, according to previous reports (Han M, et al. Sci Rep 2016; 6:36087. Matsuura A, et al. Sci Rep 2018; 8: 2158. Ma M, et al. Proc Natl Acad Sci USA 2019; 116: 7083-7088). After birth, the mice were raised normally, and at 3 weeks old, only the male mice were weaned and raised. R-ketamine (10 mg/kg bodyweight) or a medium (10 mL/kg of physiological saline) was intraperitoneally administered twice a week for four weeks, from the fourth week after birth to the eighth week after birth. […] From 8 weeks old, these were raised normally. The above NORT was carried out at 10 weeks old or thereafter.
Statistical analysis was carried out by performing a one-way analysis of variance (one-way ANOVA) and subsequently performing Fisher's LSD (Fisher's LSD). […]

In data set [5] the test system is NMDA receptors. The following applies: non-patent literature 11; cited from earlier work.

For the compound `O=C(Nc1ccccc1C(=O)NC1CCCCNC1=O)c1cc2ccccc2s1` (stereo not drawn) [ANA-12, reference compound], in data set [1] (PCP-treated mice, ANA-12 0.5 mg/kg i.p. 30 minutes before R-ketamine 10 mg/kg i.p.), the “effect of ANA-12 pretreatment on the therapeutic effect of R-ketamine in NORT” value is listed as “suppressed the therapeutic effect of R-ketamine”.
As for `CN[C@@]1(c2ccccc2Cl)CCCCC1=O` [R-ketamine], in data set [2], the “BDNF protein expression in the frontal cortex and the hippocampus” value is listed as “significantly improved”; the “ratio p-TrkB/TrkB in the frontal cortex and the hippocampus” value is on record as “significantly improved”. Moreover, the “side effects (such as drug dependency and an action of inducing a mental illness) compared to S-ketamine” value in data set [3] was “fewer side effects”. In data set [1] (PCP-treated mice, solvent 30 minutes before R-ketamine 10 mg/kg i.p. on days 15, 18, 22, 25), the “cognitive function in NORT, TrkB role study” value is on record as “significantly improved the reduced cognitive function due to PCP administration”. Also, the “cognitive function in NORT (ratio of time to find the novel object relative to time to find the two objects)” value in data set [1] was “significantly improved the reduced cognitive function due to PCP administration; also recorded: exhibits a therapeutic effect”. For the same compound, the “cognitive impairment at maturity in NORT” value in data set [4] is given as “suppressed a cognitive impairment at maturity”.
In the case of `CN[C@]1(c2ccccc2Cl)CCCCC1=O` [S-ketamine, reference compound], the “affinity toward NMDA receptors relative to R-ketamine” value in data set [5] was “stronger affinity toward NMDA receptors; also recorded: about four times higher than R-ketamine”. Besides, the “cognitive function in NORT (ratio of time to find the novel object relative to time to find the two objects)” value in data set [1] was “did not improve the reduced cognitive function due to PCP administration; also recorded: exhibited no therapeutic effect”.
